16 compounds from patent US7208154B2, “Methods and compositions for the treatment of MHC-associated conditions” (Regents of the University of Michigan, priority 2002, dated 2007) can be followed below.

Where two headings read alike, the source gives them in different places. No end group written: not given here.

Assay [1] concerns human fibroblastoid line M1 cells. The note with it: for Block of 2CA-triggered DNA repair activity: 10 μM 2CA, co-incubation with various concentrations; for Inhibition of cAMP-dependent (2CA-induced) DNA repair induction / genoprotective pathway by pentapeptide: M1 cells preincubated overnight with 50 μg/ml synthetic pentapeptide; for Block of the inhibitory effect of shared epitope peptide (Bead*0401) on 2CA-induced DNA repair: prior incubation of M1 cells: L-NMA 5 mM overnight, KT5823 1 μM 10 min. From the text:
To further determine the signaling pathways involved in DNA repair induction, the inventors used the Trevigen CometAssay™ kit (Cat. No. 4250-50-K). The CometAssay is a single-cell gel electrophoresis method that can measure a variety of types of DNA damage, and repair of damage, in individual cells. The assay is based on the alkaline lysis of labile DNA at sites of damage. The unwound, relaxed DNA is able to migrate out of the cell during electrophoresis and can be visualized by SYBR Green staining.
To quantify DNA damage, cells were collected and three parallel samples were processed (a negative control, a DNA damage control (H2O2) and a sample subjected to H2O2 following exposure to various modulators of the cAMP signaling pathway). Cells are then washed in PBS. The washed cells are combined with molten low-melting agarose (Trevigen Cat. No. 4250-50-02) and transferred to a CometSlide™ (Trevigen Cat. No. 4250-100-03). The slides are immersed in lysis buffer for 30 min, on ice, in the dark. The slides are then treated with alkali buffer for 20 to 60 min at room temperature in the dark. The slides are then electrophoresed in buffer for 10 min at 20 volts, then fixed in methanol and ethanol. The slides are then stained with SYBR green (Trevigen Cat. No. 4250-50-05) solution and fluorescently imaged with a Diagnostic Instruments digitized camera, mounted on a Nikon Eclipse E400 microscope. Scion Image software is used to quantitate the comet tail intensity. Each data point is derived from tail fluorescent intensity determination in 50–100 individual cells. Data is presented as % DNA repair (the percent decrement in tail fluorescence intensity in agonist or antagonist-treated cells, relative to the intensity recorded in cells treated with H2O2 only)±SEM. (R.U.s)
To directly examine that possibility, cells were incubated overnight with synthetic peptides corresponding to the region contained within amino acids 65–79 and their ability to mount DNA repair activity in response to cAMP-elevating agents was determined. M1 cells were preincubated overnight with 50 μg/ml of synthetic peptides corresponding to the region surrounding the third allelic hypervariable region (aa 65–79) of each of the following DRβ chains: *0401 (65–79*0401) [SEQ ID NO: 5], *0402 (65–79*0402) [SEQ ID NO: 7], *0403 (65–79*0403) [SEQ ID NO: 9] or *0404(65–79*0404) [SEQ ID NO: 10]. At the end of the preincubation, cells were collected, washed and 2CA-induced DNA repair was determined as above. Table 3 (above) lists the different third allelic hypervariable region peptides used in the entire study disclosed here.
A modified method as described previously by Auger et al. [Nature Med 2:306–310 1996] was used. Briefly, cyanogen bromide activated Speharose 4B (1.5 ml) was washed with 1 mM HCl and incubated with peptides in 0.1 M NaHCO3 and 0.5 M NaCl (pH 8) buffer overnight at 4° C. For each peptide, 5 mg was used per milliliter of Sepharose. Free Sepharose groups were blocked with 0.2 M glycine (pH 8) for 2 hours at room temperature. Columns were washed at 4° C. with the following buffers: 0.1 M NaHCO3, 0.5 M NaCl (pH 8) buffer, then 0.5 M CH3COONa (pH 4) buffer and finally PBS at pH 7.5. M1 cells were plated at a density of 0.5×10^6 cells per well (6 well plate) in 10% FBS DMEM medium until 70–80% confluence. Prior to incubation with peptides, cultures were changed to serum-free DMEM medium, then evenly overlaid with 50 μg bead conjugated peptides, and incubated for the indicated period. Soluble peptides were added overnight to M1 cells at a concentration of 50 μg/ml.

In assay [2] the test system is M1 cells. Put plainly: Intracellular cAMP level (enzyme immunoassay) in M1 cells after 2CA. It counts as cell-based, human. The conditions noted are these: M1 cells preincubated 10 min with peptide-conjugated beads, 10 or 100 μM 2CA. Here is the method:
cAMP was determined by using an Amersham Pharmacia Biotech cAMP enzymeimmunoassay (EIA) system (code RPN 225). The reagents are prepared as described by the manufacturer (lysis reagents 1 and 2, the standard for the non-acetylation assay, the anti-cAMP antiserum, the cAMP peroxidase conjugate and wash buffer). […] Samples are added, followed by the antiserum solution. Following the recommended incubation, cAMP-peroxidase conjugate is added and incubated according to the recommended protocol. Each well is then aspirated and washed, and enzyme substrate is added and incubated. The results can then be read at 630 nm or at 450 nm (depending on the time of incubation and method of stopping the reaction), again according to the manufacturer's protocol.
A.) cAMP levels were assayed in M1 cells that were preincubated for 10 minutes with peptide-conjugated beads [Bead*0401, SEQ ID NO:6; Bead*0402, SEQ ID NO: 8], and intracellular cAMP level changes in response to stimulation with either 10 μM (FIG. 10A, top) or 100 μM (FIG. 10A, bottom) of 2CA were determined at different time points. cAMP levels were measured using a commercial enzyme immunoassay kit from Pharmacia. Results are expressed as fold increase of cAMP above baseline levels.
For orientation: Cyclic AMP is a second messenger, typically raised through Gs and lowered through Gi signalling.

Assay [3] has as its system Protein kinase A (PKA). Put plainly: PKA activity in M1 cells after 2CA. It is filed as cell-based, human. The conditions noted are these: M1 cells preincubated with peptide-conjugated beads, 10 μM 2CA. Here is the method: Protein kinase A (PKA) was measured using the Life Technologies™ Protein Kinase A (cAMP-dependent Protein Kinase) Assay System (Cat. No. 13128-012). The basis of the assay system is the use of a heptapeptide substrate and a 17-amino acid inhibitor peptide (which is valuable for proving PKA-specific protein kinase activity). Four assay conditions per experimental condition are recommended by the manufacturer (+/− inhibitor and +/− cAMP) to determine total PKA-specific kinase activity and proportion of PKA activated in the cells or tissue of interest. Briefly, the four parallel assay conditions are set up for each of the four assay conditions for a given cell or tissue sample, according to the manufacturer's instructions. Substrate and [γ-^32P]ATP (3000–6000 Ci/mmol stock solution) are then added to each tube, and incubated according to the manufacturer's instructions. Following the incubation period, a sample from each tube is spotted onto a […] disc, which is the acid washed prior to scintillation counting (all according to the manufacturer's instructions). Activity can then be determined as described by the manufacturer of the kit.
B.) PKA activity was determined in M1 cells preincubated with peptide-conjugated beads [Bead*0401, SEQ ID NO: 6; Bead*0402, SEQ ID NO: 8], at different time points following treatment with 10 μM 2CA as above.

In assay [4] the test system is hybrid neuroblastoma-glioma NG108–15 cell line. Nature of the assay: Neuroprotection in acutely stressed NG108–15 cells. It is filed as cell-based. The conditions noted are these: near-confluent NG108–15, 50 μg/ml peptide, 24 hr. How it is done:
In order to assess whether shared epitope-containing peptides exert a neuroprotective effect, preliminary experiments were carried out with the hybrid neuroblastoma-glioma NG108–15 cell line. Cells (10^5/ml) were first cultured overnight at near-confluence in 24-well plates in DMEM medium supplemented with 1% fetal calf serum (FCS). Under these conditions, NG108–15 cells show a flat, multipolar morphology and neurite formation. After 20 hours, cells were stressed acutely in serum-free medium (by aspiration of the medium and replacement with serum-free DMEM) with 50 μg/ml of peptides and evaluated morphologically at different time points thereafter. […] Morphological differences between cultures treated with different peptides could be observed as early as 5–6 hrs after treatment. The photographs shown were taken at the 24 hr time point. In another experiment (FIG. 12C), NG108–15 cells were cultured at low cell density (2×10^4/ml) in 1% FCS-containing DMEM medium overnight. The next day cells were subjected to acute stress in serum-free and low glucose (RPMI1640) medium (after aspiration of the 1% FCS DMEM) in the presence of 50 μg/ml of either 65–78*0401 [SEQ ID NO: 6] or 65–78*0402 [SEQ ID NO: 8] peptides. After 72 hours, cells were fixed with 1% formaldehyde and inspected microscopically. Mean±SEM was determined by averaging cell counts in eight randomly-selected microscopic fields in 200× magnification. Neurite-positive cells were defined as cells with one or more projections extending at least twice as long as the cell diameter. […] (FIG. 12C). The calculated number of neurite-positive cells was over 6-fold higher in shared epitope-containing peptide-cultured cells. When cultured in the presence of lysophosphatidic acid or high concentrations of serum, neuronal cells undergo neurite retraction (130). […] Thus, it is concluded that shared epitope-containing peptides may exert neuroprotective effects.

With `CC(=O)N[C@H](C(=O)O)C(C)(C)SN=O` (racemic) [SNAP, S-Nitroso-N-Acetylpenicillamine, reference compound], the “Block of 2CA-triggered DNA repair activity” value in assay [1] is “completely blocked”.

With “Bead*0402: Sepharose beads chemically conjugated to 14-mer peptide, residues 65–78 of DRβ*0402 chain [SEQ ID NO: 8] (KDILEDERAAVDTY; also: conjugated to Sepharose beads)”, the “cAMP level response to 2CA” value in assay [2] is recorded as “mounted substantial response to the agonist”. In addition, in assay [3], the “PKA activation following 2CA” value is “mounted substantial response to the agonist”.

`CCCn1c(=O)[nH]c(=O)c2[nH]cnc21` [enprofylline, reference compound]: the “Block of 2CA-triggered DNA repair activity” value in assay [1] is “could be blocked”.

On to Gln Arg Arg Ala Ala (QRRAA), for which the “Inhibition of cAMP-dependent (2CA-induced) DNA repair induction / genoprotective pathway by pentapeptide” value in assay [1] is “inhibited completely cAMP-dependent DNA repair induction”; in assay [1] (listed as #2) it was “efficiently inhibited the genoprotective pathway”.

In the case of `O=S(=O)(NCCNC/C=C/c1ccc(Br)cc1)c1cccc2cnccc12` [H-89, reference compound], the “Block of 2CA-triggered DNA repair activity” value in assay [1] is recorded as “could also be blocked”.

Take Gln Lys Arg Leu Ala (QKRLA): the results for the “Inhibition of cAMP-dependent (2CA-induced) DNA repair induction / genoprotective pathway by pentapeptide” value in assay [1] and in assay [1] (listed as #3) were “equally effective in suppressing cAMP signaling” and “efficiently inhibited the genoprotective pathway”, respectively.

Take Gln Lys Cys Leu Ala (QKCLA): the entries for the “Inhibition of cAMP-dependent (2CA-induced) DNA repair induction / genoprotective pathway by pentapeptide” value in assay [1] and in assay [1] (listed as #5) were “equally effective in suppressing cAMP signaling” and “efficiently inhibited the genoprotective pathway”, respectively.

Consider “KDILEDERAAVDTY [65–78*0402, control peptide, amino acids 65–78 of the β chain encoded by the HLA-DRB*0402 allele]”, for which, in assay [4], the “Cell morphology after acute serum-free stress” value was “adjacent cells showed a rounding effect and collapsed into aggregates”.

Take `COC(=O)[C@@]1(OC)C[C@H]2O[C@]1(C)n1c3ccccc3c3c4c(c5c6ccccc6n2c5c31)C(=O)N(C)C4` [KT5823, reference compound]: the “Block of the inhibitory effect of shared epitope peptide (Bead*0401) on 2CA-induced DNA repair” value in assay [1] was “could be blocked”.

Consider `Nc1nc2c(nc(Br)n2[C@@H]2O[C@@H]3COP(=O)(O)O[C@H]3[C@H]2O)c(=O)[nH]1` [8-Br-cGMP, 8-bromo-cyclic GMP, reference compound], for which the “Block of 2CA-triggered DNA repair activity” value in assay [1] is “completely blocked”.

For the compound “HBc*0401: recombinant chimeric hepatitis B core protein with insertion of amino acids 65–79 of the β chain encoded by HLA-DRB*0401”, the “Suppression of cAMP signaling (2CA-induced DNA repair)” value in assay [1] (M1 cells preincubated overnight with 50 μg/ml recombinant HBc particles) is “effectively suppressed cAMP signaling”.

For the compound `CNC(=N)NCCC[C@H](N)C(=O)O` [L-NMA, NG-methyl-L-arginine, reference compound], in assay [1], the “Block of the inhibitory effect of shared epitope peptide (Bead*0401) on 2CA-induced DNA repair” value is recorded as “could be blocked”.

For the compound Gln Glu Cys Leu Ala (QECLA), the “Inhibition of cAMP-dependent (2CA-induced) DNA repair induction / genoprotective pathway by pentapeptide” value in assay [1] is “failed to do so”.

Take `CCCn1c(=O)c2[nH]c(-c3ccc(OCC(=O)NCCN)cc3)nc2n(CCC)c1=O` [XAC, reference compound]: in assay [1], the “Block of 2CA-triggered DNA repair activity” value was “could be blocked”.

For `CCCCC[C@H](O)/C=C/[C@H]1[C@H](O)CC(=O)[C@@H]1CCCCCCC(=O)O` [PGE1, prostaglandin E1, reference compound], in assay [1] (M1 cells stimulated 20 min with various concentrations before 100 μM H2O2), the DNA repair triggered result was “triggered in all cases DNA repair”.

As for Gln Lys Arg Ala Ala (QKRAA), the “Inhibition of cAMP-dependent (2CA-induced) DNA repair induction / genoprotective pathway by pentapeptide” value in assay [1] is recorded as “had a similar effect”; in assay [1] (listed as #1) it was “efficiently inhibited the genoprotective pathway”.
